Experimental data from patent publication US4027017A, “Method of treating alcoholism” (Chugai Seiyaku Kabushiki Kaisha, priority 1974, dated 1977).
Where “and” joins values, the source holds several entries; their conditions need not be identical. Identical values can stand only once. Entries after “also recorded” stand apart in the source; their conditions may differ.

Columns and labels:
neutral lipid in liver = experiment: Inhibiting action for accumulation of neutral lipid in liver (ethanol-treated rats; Van Handel and Zilver-Smit method); format: in vivo, Sprague Dawley strain male rats; settings: 160 mg/kg oral in corn oil, 30 min before ethanol 6 g/kg oral; liver taken 24 hours after
Experimental: Inhibiting Action for Accumulation of Neutral Lipid in Liver […] Each rat was orally administered with trisodium uridine-5'-diphosphate glucuronic acid (UDPGA-3.Na) as a suspension in corn oil in a dose of 160 mg/kg.body weight. Thirty minutes after the administration, each rat was orally administered with ethanol as a 50% aqueous solution in a dose of 6 g/kg.body weight and, 24 hours after the administration, the liver was taken out and an amount of neutral lipid contained therein was determined by the Van Handel and Zilver-Smit method. For control, a glucose aqueous solution having a caloric content equivalent to the same amount of ethanol was used instead of ethanol.

[1] = system: Sprague Dawley strain male rats; experiment: Behaviour and righting reflex after ethanol, UDPGA.3Na given 30 minutes before ethanol; format: in vivo; settings: 160 mg/kg oral 30 min before ethanol 6 g/kg
Experimental: The Sprague Dawley strain male rats weighing 260±30 g which had been fed rat food commerically available as CLEA CE-2 and prevented from eating food for 12 hours just before the experiment were divided into groups each of 10-13 members each. Each rat was orally administered trisodium uridine-5'-diphosphate glucuronic acid (UDPGA.3Na) in the form of a suspension in corn oil in an amount 160 mg/kg.body weight. Thirty minutes after the administration, ethanol as a 50% aqueous solution was orally administered in a dose of 6 g/kg.body weight and then behavior of the rat was observed over 24 hours.

alcohol level in blood = experiment: Measurement of alcohol level in blood (alcoholic dehydrogenase method) and behavior; format: in vivo, Sprague Dawley strain female rats; settings: 30 min before ethanol 6 g/kg
Experimental: Measurement of Alcohol Level in Blood
In this Example, Sprague Dawley strain female rats (weighing 150±20 g) divided into groups of 9-12 members each were used.
After abstention from food overnight each rat was orally administered trisodium uridine-5'-diphosphate glucuronic acid (UDPGA.3Na) in the form of a physiological saline solution in a dose of 160 mg/kg.body weight as an effective ingredient and, 30 minutes after the administration, the rat was administered with ethanol in a dose of 6 g/kg body weight. Four hours and thirty minutes after the administration of ethanol, the rat was etherized, and blood was sampled from its heart to determine alcohol level in the blood by a alcoholic dehydrogenase method. For control, a physiological saline solution was used instead of the UDPGA.3Na solution.

[2] = system: Sprague Dawley strain male rats; experiment: Behaviour and righting reflex after ethanol, UDPGA.3Na given 30 minutes after ethanol; format: in vivo; settings: 160 mg/kg oral 30 min after ethanol 6 g/kg
Experimental: The Sprague Dawley strain male rats weighing 160±30 g which were fed rat food commercially available as CLEA CE-2 and prevented from eating food for 12 hours just before the experiment was started. Each rat was administered with ethanol as a 50% aqueous solution in a dose of 6 g/kg.body weight. Thirty minutes after the administration, the rat was orally administered with a suspension of trisodium uridine-5'-diphosphate glucuronic acid (UDPGA.3Na) in corn oil in a dose of 160 mg/kg.body weight based on UDPGA.3Na. The behavior of the rat was observed over 24 hours after the last administration.

Structure (SMILES): O=C(O)[C@H]1O[C@H](OP(=O)(O)OP(=O)(O)OC[C@H]2O[C@@H](n3ccc(=O)[nH]c3=O)[C@H](O)[C@@H]2O)[C@H](O)[C@@H](O)[C@@H]1O [UDPGA.3Na, trisodium uridine-5'-diphosphate glucuronic acid]
- % inhibition (neutral lipid in liver) (neutral lipid in liver): 59.7%
- Neutral Lipid in Liver (neutral lipid in liver): 23.05 ± 10.72 mg/g
- Behaviour: Deep Sleep ([1]; 3 hrs. after alcohol): 2 heads
- Behaviour: Lying Flat ([1]; 3 hrs. after alcohol): 4 heads
- Behaviour: Normal Walking ([1]; 3 hrs. after alcohol): 4 heads
- Righting Reflex + ([1]; 3 hrs. after alcohol): 7 heads
- Righting Reflex - ([1]; 3 hrs. after alcohol): 3 heads
- Behaviour: Deep Sleep ([1]; 6 hrs. after alcohol): 2 heads
- Behaviour: Lying Flat ([1]; 6 hrs. after alcohol): 6 heads
- Behaviour: Normal Walking ([1]; 6 hrs. after alcohol): 2 heads
- Righting Reflex + ([1]; 6 hrs. after alcohol): 7 heads
- Righting Reflex - ([1]; 6 hrs. after alcohol): 3 heads
- Behaviour: Deep Sleep ([1]; 9 hrs. after alcohol): 1 heads
- Behaviour: Lying Flat ([1]; 9 hrs. after alcohol): 6 heads
- Behaviour: Normal Walking ([1]; 9 hrs. after alcohol): 3 heads
- Righting Reflex + ([1]; 9 hrs. after alcohol): 9 heads
- Righting Reflex - ([1]; 9 hrs. after alcohol): 1 heads
- Behaviour: Deep Sleep ([1]; 12 hrs. after alcohol): 0 heads
- Behaviour: Lying Flat ([1]; 12 hrs. after alcohol): 0 heads
- Behaviour: Normal Walking ([1]; 12 hrs. after alcohol): 10 heads
- Righting Reflex + ([1]; 12 hrs. after alcohol): 10 heads
- Righting Reflex - ([1]; 12 hrs. after alcohol): 0 heads
- Behaviour: Deep Sleep ([1]; 18 hrs. after alcohol): 0 heads
- Behaviour: Lying Flat ([1]; 18 hrs. after alcohol): 0 heads
- Behaviour: Normal Walking ([1]; 18 hrs. after alcohol): 10 heads
- Righting Reflex + ([1]; 18 hrs. after alcohol): 10 heads
- Righting Reflex - ([1]; 18 hrs. after alcohol): 0 heads
- Ethanol level in Blood, Average (alcohol level in blood; 160 mg/kg oral in physiological saline, blood 4 h 30 min after ethanol, Confidence Limits: 98%): 1.59 ± 0.93 mg/mL
- Ethanol level in Blood (individual test animals) (alcohol level in blood; 160 mg/kg oral in physiological saline, blood 4 h 30 min after ethanol, test animals 1-12 in block order): 2.21 mg/mL and 1.65 mg/mL and 1.82 mg/mL and 1.41 mg/mL and 1.19 mg/mL and 2.15 mg/mL and 0.85 mg/mL and 0.37 mg/mL and 0.63 mg/mL and 1.79 mg/mL and 2.19 mg/mL and 2.82 mg/mL
- Behavior (individual test animals) (alcohol level in blood; 160 mg/kg oral in physiological saline, test animals 1-12 in block order): lying flat; also recorded: normal walking; also recorded: deep sleep
- alcohol level in blood in comparison with the control (alcohol level in blood; 160 mg/kg oral, blood 4 h 30 min after ethanol): significantly lowered
- Behaviour: Deep Sleep ([2]; 3 hrs. after alcohol): 2 heads
- Behaviour: Lying Flat ([2]; 3 hrs. after alcohol): 5 heads
- Behaviour: Normal Walking ([2]; 3 hrs. after alcohol): 3 heads
- Righting Reflex + ([2]; 3 hrs. after alcohol): 7 heads
- Righting Reflex - ([2]; 3 hrs. after alcohol): 3 heads
- Behaviour: Deep Sleep ([2]; 6 hrs. after alcohol): 2 heads
- Behaviour: Lying Flat ([2]; 6 hrs. after alcohol): 6 heads
- Behaviour: Normal Walking ([2]; 6 hrs. after alcohol): 2 heads
- Righting Reflex + ([2]; 6 hrs. after alcohol): 7 heads
- Righting Reflex - ([2]; 6 hrs. after alcohol): 3 heads
- Behaviour: Deep Sleep ([2]; 9 hrs. after alcohol): 1 heads
- Behaviour: Lying Flat ([2]; 9 hrs. after alcohol): 3 heads
- Behaviour: Normal Walking ([2]; 9 hrs. after alcohol): 6 heads
- Righting Reflex + ([2]; 9 hrs. after alcohol): 8 heads
- Righting Reflex - ([2]; 9 hrs. after alcohol): 2 heads
- Behaviour: Deep Sleep ([2]; 12 hrs. after alcohol): 0 heads
- Behaviour: Lying Flat ([2]; 12 hrs. after alcohol): 2 heads
- Behaviour: Normal Walking ([2]; 12 hrs. after alcohol): 8 heads
- Righting Reflex + ([2]; 12 hrs. after alcohol): 10 heads
- Righting Reflex - ([2]; 12 hrs. after alcohol): 0 heads
- Behaviour: Deep Sleep ([2]; 18 hrs. after alcohol): 0 heads
- Behaviour: Lying Flat ([2]; 18 hrs. after alcohol): 0 heads
- Behaviour: Normal Walking ([2]; 18 hrs. after alcohol): 10 heads
- Righting Reflex + ([2]; 18 hrs. after alcohol): 10 heads
- Righting Reflex - ([2]; 18 hrs. after alcohol): 0 heads
